PMC3031908 (Bioorganic & medicinal chemistry, 2008)

Target: sodium channel site 2 binding site (neuronal voltage-gated sodium channel)
Experiment: not given
Details: −pIC50 = −log IC50 (IC50 in μM); training set; ref literature reference; cited from earlier work

Compound | Final model, −pIC50 Obsd
CCOC(=O)c1ccc(N)cc1 [Compound 21, benzocaine] | −2.96
COC(=O)[C@H]1[C@@H](OC(=O)c2ccccc2)C[C@@H]2CC[C@H]1N2C [Compound 24] | −1.69
CC(CNC1CCCCC1)OC(=O)c1ccccc1 (stereo not drawn) [Compound 27] | −0.85
CCCCC1(c2ccccc2)NC(=O)NC1=O (stereo not drawn) [Compound 2] | −2.01
CCCCCCC1(c2ccccc2)NC(=O)NC1=O (stereo not drawn) [Compound 5] | −1.11
O=C1NC(=O)C2(CCc3ccccc32)N1 (stereo not drawn) [Compound 9] | −3.32
O=C1C(c2ccccc2)N2CCCCCN1C2=O (stereo not drawn) [Compound 19] | −2.63
CCCCC1(c2ccccc2C)NC(=O)NC1=O (stereo not drawn) [Compound 14] | −2.35
CCCNC(C)C(=O)Nc1ccccc1C (stereo not drawn) [Compound 31] | −1.73
CCCCCC1(c2ccccc2)NC(=O)N(C)C1=O (stereo not drawn) [Compound 4] | −1.59
CC12C(=O)NC(=O)N1CCc1ccccc12 (stereo not drawn) [Compound 13] | −2.40
O=C1C(c2ccccc2)N2CCCCN1C2=O (stereo not drawn) [Compound 18] | −2.85
O=C1NC(=O)C(c2ccccc2)(C2CCCCC2)N1 (stereo not drawn) [Compound 17] | −1.76
CCCCCCCC(O)(C(N)=O)c1ccccc1 (stereo not drawn) [Compound 20] | −0.95
CCCCCCCCC1(c2ccccc2)NC(=O)NC1=O (stereo not drawn) [Compound 7] | −0.70
CCCCC1(c2cccc(C)c2)NC(=O)NC1=O (stereo not drawn) [Compound 15] | −1.76
O=C1NC(=O)C2(CCCc3ccccc32)N1 (stereo not drawn) [Compound 10] | −2.93
CCN(CC)CCOC(=O)c1ccc(N)cc1 [Compound 32] | −2.04
CC1CCCCN1CCCOC(=O)c1ccccc1 (stereo not drawn) [Compound 30, piperocaine] | −1.11
O=C1NC(=O)C2(CCCCCc3ccccc32)N1 (stereo not drawn) [Compound 12] | −2.40
CCCOc1cc(N)ccc1C(=O)OCCN(CC)CC.Cl [Compound 34] | −1.38
O=C1NC(=O)C2(CCCCc3ccccc32)N1 (stereo not drawn) [Compound 11] | −2.40
CCCCC1(c2ccc(C)cc2)NC(=O)NC1=O (stereo not drawn) [Compound 16] | −1.98
CCCCCCCC1(c2ccccc2)NC(=O)NC1=O (stereo not drawn) [Compound 6] | −0.70
CCCOc1ccc(C(=O)OCCN(CC)CC)cc1N [Compound 33] | −0.28
CCN1C(=O)NC(=O)C1(C)c1ccccc1 (stereo not drawn) [Compound 8] | −2.86
CCOc1ccc(C(=O)OCCN(CC)CC)cc1 [Compound 29] | −1.38
CCCC1(c2ccccc2)NC(=O)NC1=O (stereo not drawn) [Compound 1] | −2.21
O=C1NC(=O)C(c2ccccc2)(c2ccccc2)N1 [Compound 36, phenytoin] | −1.60

Test system: sodium channel site 2 binding site (neuronal voltage-gated sodium channel)
Experiment: [3H]-BTX-B binding
Design: species or system rat
Details: 37 vs 39 (83% vs 16%) at 40 μM

Compound | increase in inhibition on heptyl for phenyl substitution at R1
CCCCCCCC(O)(C(N)=O)c1cc(C)c(NC(=O)CN(CC)CC)c(C)c1 (stereo not drawn) [Compound 37, 2-[4-(2-Diethylamino-acetylamino)-3,5-dimethylphenyl]-2-hydroxy-nonanoic acid amide] | greater than 5 fold

Same assay, conditions: read-out: observed (actual) IC50, [3H]-BTX

Compound | IC50 [µM]
CCCCCCCC1(c2cc(C)c(NC(=O)CN(CC)CC)c(C)c2)NC(=O)NC1=O (stereo not drawn) [Compound 44, 2-Diethylamino-N-[4-(4-heptyl-2,5-dioxo-imidazolidin-4-yl)-2,6-dimethyl-phenyl]-acetamide] | 13.5
CCN(CC)CC(=O)Nc1c(C)cc(C2(c3ccccc3)NC(=O)NC2=O)cc1C (stereo not drawn) [Compound 42, 2-Diethylamino-N-[4-(2,5-dioxo-4-phenyl-imidazolidin-4-yl)-2,6-dimethyl-phenyl]-acetamide] | ~39.8
CCN(CC)CC(=O)Nc1ccc(C2(c3ccccc3)NC(=O)NC2=O)cc1 (stereo not drawn) [Compound 41, 2-Diethylamino-N-[4-(2,5-dioxo-4-phenyl-imidazolidin-4-yl)-phenyl]-acetamide] | ~39.8
CCCCCCCC(O)(C(N)=O)c1cc(C)c(NC(=O)CN(CC)CC)c(C)c1 (stereo not drawn) [Compound 37, 2-[4-(2-Diethylamino-acetylamino)-3,5-dimethylphenyl]-2-hydroxy-nonanoic acid amide] | 6

Same assay, conditions: test set; −log IC50 (IC50 in μM)

Compound | −pIC50 Obsd
CCCCCCCC1(c2cc(C)c(NC(=O)CN(CC)CC)c(C)c2)NC(=O)NC1=O (stereo not drawn) [Compound 44, 2-Diethylamino-N-[4-(4-heptyl-2,5-dioxo-imidazolidin-4-yl)-2,6-dimethyl-phenyl]-acetamide] | -1.13
CCN(CC)CC(=O)Nc1c(C)cc(C2(c3ccccc3)NC(=O)NC2=O)cc1C (stereo not drawn) [Compound 42, 2-Diethylamino-N-[4-(2,5-dioxo-4-phenyl-imidazolidin-4-yl)-2,6-dimethyl-phenyl]-acetamide] | -1.60
CCN(CC)CC(=O)Nc1ccc(C2(c3ccccc3)NC(=O)NC2=O)cc1 (stereo not drawn) [Compound 41, 2-Diethylamino-N-[4-(2,5-dioxo-4-phenyl-imidazolidin-4-yl)-phenyl]-acetamide] | -1.60
CCCCCCCC(O)(C(N)=O)c1cc(C)c(NC(=O)CN(CC)CC)c(C)c1 (stereo not drawn) [Compound 37, 2-[4-(2-Diethylamino-acetylamino)-3,5-dimethylphenyl]-2-hydroxy-nonanoic acid amide] | -0.78

Target: human Nav1.2 (Homo sapiens, UniProt Q99250)
Experiment: not given
Assay type: cell-based
Details: HEK cells

human Nav1.2, sequence (Q99250 whole entry): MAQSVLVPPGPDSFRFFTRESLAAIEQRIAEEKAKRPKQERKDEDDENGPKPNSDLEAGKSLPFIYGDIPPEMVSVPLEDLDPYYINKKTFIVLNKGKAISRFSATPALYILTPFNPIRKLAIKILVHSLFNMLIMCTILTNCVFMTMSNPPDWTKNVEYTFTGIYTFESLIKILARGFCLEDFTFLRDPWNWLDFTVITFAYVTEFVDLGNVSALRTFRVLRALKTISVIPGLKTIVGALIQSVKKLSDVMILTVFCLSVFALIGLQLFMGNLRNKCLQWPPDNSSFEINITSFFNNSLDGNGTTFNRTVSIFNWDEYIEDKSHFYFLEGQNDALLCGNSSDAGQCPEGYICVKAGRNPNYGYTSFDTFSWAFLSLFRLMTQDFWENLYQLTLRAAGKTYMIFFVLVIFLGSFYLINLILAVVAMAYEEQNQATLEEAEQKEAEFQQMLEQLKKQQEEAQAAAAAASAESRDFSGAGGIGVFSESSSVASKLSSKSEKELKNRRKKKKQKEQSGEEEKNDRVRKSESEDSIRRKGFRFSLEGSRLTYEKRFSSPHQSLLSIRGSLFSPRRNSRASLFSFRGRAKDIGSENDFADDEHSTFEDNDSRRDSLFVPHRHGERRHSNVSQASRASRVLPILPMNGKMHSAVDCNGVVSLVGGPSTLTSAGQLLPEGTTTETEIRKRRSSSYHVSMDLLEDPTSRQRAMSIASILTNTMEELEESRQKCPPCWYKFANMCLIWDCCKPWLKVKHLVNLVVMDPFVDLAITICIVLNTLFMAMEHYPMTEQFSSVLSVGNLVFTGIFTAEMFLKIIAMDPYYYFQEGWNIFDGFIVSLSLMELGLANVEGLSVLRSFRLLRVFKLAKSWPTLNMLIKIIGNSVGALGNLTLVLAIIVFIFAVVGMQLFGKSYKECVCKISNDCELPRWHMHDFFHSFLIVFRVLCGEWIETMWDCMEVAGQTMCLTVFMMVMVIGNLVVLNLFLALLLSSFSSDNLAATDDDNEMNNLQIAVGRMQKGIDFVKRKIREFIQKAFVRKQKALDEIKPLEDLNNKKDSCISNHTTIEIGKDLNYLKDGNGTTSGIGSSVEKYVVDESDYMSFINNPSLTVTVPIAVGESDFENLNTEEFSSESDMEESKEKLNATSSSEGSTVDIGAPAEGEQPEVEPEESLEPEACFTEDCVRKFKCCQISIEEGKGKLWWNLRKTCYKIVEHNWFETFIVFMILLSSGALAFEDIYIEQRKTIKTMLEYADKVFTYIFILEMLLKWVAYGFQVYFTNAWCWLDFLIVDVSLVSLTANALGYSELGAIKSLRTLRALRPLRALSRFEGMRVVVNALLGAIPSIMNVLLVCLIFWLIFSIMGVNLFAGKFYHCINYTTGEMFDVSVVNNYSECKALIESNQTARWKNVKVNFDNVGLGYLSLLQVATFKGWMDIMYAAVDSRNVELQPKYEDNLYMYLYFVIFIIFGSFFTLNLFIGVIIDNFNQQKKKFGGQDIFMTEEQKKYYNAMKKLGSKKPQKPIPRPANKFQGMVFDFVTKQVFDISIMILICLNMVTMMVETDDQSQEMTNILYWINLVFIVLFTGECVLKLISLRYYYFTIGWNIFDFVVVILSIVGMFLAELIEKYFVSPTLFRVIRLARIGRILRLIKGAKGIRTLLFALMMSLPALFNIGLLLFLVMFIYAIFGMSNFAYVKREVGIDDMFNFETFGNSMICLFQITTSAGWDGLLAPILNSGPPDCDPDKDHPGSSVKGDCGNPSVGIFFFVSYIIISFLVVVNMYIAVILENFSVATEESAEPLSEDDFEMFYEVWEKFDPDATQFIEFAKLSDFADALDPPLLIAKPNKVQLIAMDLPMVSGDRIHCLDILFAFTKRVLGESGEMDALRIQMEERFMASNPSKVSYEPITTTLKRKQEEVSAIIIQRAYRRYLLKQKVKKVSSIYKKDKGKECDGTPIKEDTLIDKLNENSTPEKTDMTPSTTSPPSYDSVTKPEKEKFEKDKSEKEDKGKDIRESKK

Compound | reversibility of block on washout
CCCCCCCC(O)(C(N)=O)c1cc(C)c(NC(=O)CN(CC)CC)c(C)c1 (stereo not drawn) [Compound 37, 2-[4-(2-Diethylamino-acetylamino)-3,5-dimethylphenyl]-2-hydroxy-nonanoic acid amide] | partially reversible upon washout
